{
  "source": "patent US20250134907A1",
  "about": "“FUSED DIAZEPINES AS AGONISTS OF THE INSULIN-LIKE 3 (INSL3) PEPTIDE RECEPTOR RXFP2 AND METHODS OF USE THEREOF” (The United States of America,as represented by the …, priority 2022, published 2025)",
  "key": {"[1]": {"tested_on": "chimera RXFP2-1 (extracellular domain of RXFP2, transmembrane domain of RXFP1)", "assay": "HTRF cAMP assay in HEK293T cells transiently transfected with chimera RXFP2-1", "type": "cell-based, human", "from_the_text": "To further investigate the involvement of the RXFP2 extracellular and transmembrane domains in agonist activation of the receptor, two complementary chimeras were created using the RXFP1 receptor, which is not activated by the agonists of formula (I), to transiently transfect HEK293T cells and measured changes in cAMP induction using the HTRF assay.\nChimeric receptors were generated by IN-FUSION™ (Takara Bio USA, Inc., San Jose, CA) mutagenesis using full-length human RXFP1 and RXFP2 receptor constructs. Polymerase chain reaction (PCR) was performed using PfuTurbo high-fidelity DNA polymerase (Agilent Technologies, Santa Clara, CA) and overlapping primers with at least 15 bp sequence homology within the fusion site. PCR products were digested with Dpnl restricton enzyme at 37° C. overnight, run on a 0.8% agarose gel and purified using the GENEJET™ Gel extraction kit (Thermo Scientific, Waltham, MA). The purified DNA fragments were then ligated into the BamHI and XhoI pre-digested pcDNA3.1™/Zeo(+) AmpR mammalian expression vector using the In-Fusion HD enzyme premix (Clontech, Mountain View, CA) at 50° C. for 15 minutes, and the resulting product was used to transform Stellar competent cells (Takara Bio USA, Inc., San Jose, CA). The clones were fully sequenced to confirm the correct fusion of both receptor fragments. Chimera RXFP2-1 contained the extracellular domain of RXFP2 and the transmembrane domain of RXFP1. Accordingly, chimera RXFP1-2 contained the extracellular domain of RXFP1 and the transmembrane domain of RXFP2.\nHEK293T cells were seeded in 6-well flat-bottom clear plates at 0.5 million cells/well in 2 mL/well of growth medium (DMEM, 10% FBS, 1× Pen/Strep) and allowed to attach overnight at 37° C. and 5% CO2. The next morning, cells were transfected with 2 μg of plasmid (chimeric receptors, WT RXFP2, or WT RXFP1) and 6 μl of Lipofectamine2000 (Invitrogen, Waltham, MA) in a total volume of 200 μl/well OPTI-MEM™ I (Thermo Fisher, Waltham, MA) reduced serum medium and allowed to incubate an additional 24 hours. The next day, transfected cells were seeded in 96-well flat-bottom opaque plates at 30,000 cells/well in 60 μL/well of serum-free DMEM medium and allowed to attach overnight at 37° C. at 5% CO2. The next morning, cells were treated with 1 μL/well of compound (25 μM-0.25 nM), 2 μM forskolin, or DMSO vehicle. Cells were also treated with 4 μL of positive control INSL3 (100-0.01 nM), Relaxin2 (100-10 nM), or vehicle (serum-free DMEM+IBMX). Plates were incubated for 1 hour at 37° C. and 5% CO2, after which kit cAMP-d2 and anti-cAMP antibody were added as previously described. Cells were incubated for 1 hour at room temperature, and then the signal was read on a CLARIOstar plate reader (BMG Labtech, Germany)."}, "[2]": {"tested_on": "gubernaculum of female embryos", "assay": "Gubernaculum development in female embryos of treated pregnant mice", "type": "in vivo, C57BL/6J mice", "settings": "30 mg/kg intraperitoneal to pregnant females, embryonic day 12.5 to 17.5", "from_the_text": "The role of INSL3 and RXFP2 in gubernaculum development for the initial transabdominal descent of the testis during embryogenesis has been widely characterized in Insl3^-/- and Rxfp2^-/- mouse models of cryptorchidism. […] The gubernaculum is composed of the gubernacular bulb and cord, and it has begun invagination into the abdominal wall in preparation for the inguinoscrotal stage of testicular descent, which will finalize after birth. […] The hypothesis for our experiment is that by injecting pregnant females with the RXFP2 agonists during this embryonic development window, gubemaculum development could be induced in female embryos, which has been previously shown in female embryos overexpressing INSL3. […] For this assay, whole embryos were fixed in 10% formaldehyde for 24 hours. Afterwards, embryos were washed twice with PBS for 1 hour, followed by 3 consecutive washes with increasing concentrations of ethanol (30%, 50% and 70%) for 30 minutes. Fixed embryos were prepared for histology using an automatic tissue processor (Leica TP1020, Leica Biosystems, Germany), embedded in paraffin wax, and 5-7 μm sagittal serial sections were cut using an automated rotary microtome (Leica RM2255, Leica Biosystems, Germany). […] At least 4 embryos were analyzed per treatment group."}, "RXFP2": {"molecular_target": "T1, RXFP2 (Homo sapiens, UniProt Q8WXD0)", "T1 construct": "expressed in transfected cells", "T1 sequence (Q8WXD0 whole entry)": "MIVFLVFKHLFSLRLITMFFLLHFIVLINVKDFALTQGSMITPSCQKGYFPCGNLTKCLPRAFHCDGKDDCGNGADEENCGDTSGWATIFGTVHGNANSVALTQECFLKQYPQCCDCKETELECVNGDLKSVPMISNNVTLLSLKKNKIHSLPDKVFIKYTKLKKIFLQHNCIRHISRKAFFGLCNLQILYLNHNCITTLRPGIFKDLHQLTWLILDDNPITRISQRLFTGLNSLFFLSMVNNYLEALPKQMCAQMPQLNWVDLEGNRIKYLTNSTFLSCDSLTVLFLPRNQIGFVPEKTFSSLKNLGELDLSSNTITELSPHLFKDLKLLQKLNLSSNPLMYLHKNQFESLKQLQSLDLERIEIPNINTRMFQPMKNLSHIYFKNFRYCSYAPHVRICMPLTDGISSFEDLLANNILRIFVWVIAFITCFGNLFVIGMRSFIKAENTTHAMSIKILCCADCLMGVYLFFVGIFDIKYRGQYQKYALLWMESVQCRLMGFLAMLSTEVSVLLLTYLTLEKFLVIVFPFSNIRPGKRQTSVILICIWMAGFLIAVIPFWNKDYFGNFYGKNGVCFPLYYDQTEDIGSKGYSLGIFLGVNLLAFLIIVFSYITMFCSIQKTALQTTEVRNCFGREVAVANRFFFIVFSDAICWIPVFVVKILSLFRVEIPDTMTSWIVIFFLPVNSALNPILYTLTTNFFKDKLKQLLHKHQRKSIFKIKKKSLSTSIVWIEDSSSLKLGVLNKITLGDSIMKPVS", "assay": "Luciferase cAMP assay in HEK-CRE-Luc-RXFP2 cells", "type": "cell-based", "settings": "for EC50: 3 h treatment; for Emax (% Eff vs. 10 nM INSL3): relative to 10 nM INSL3 response", "protocol": "A confirmatory cAMP assay was done to eliminate false positives using a HEK293T-CRE-Luc cell line stably transfected with RXFP2 (HEK-CRE-Luc-RXFP2), as this cell line expresses luciferase under the control of the cAMP response element (CRE). Activation of the RXFP2 receptor increases intracellular cAMP levels, inducing luciferase transcription in the nucleus. Thus, luciferase activity in these cells is proportional to cAMP accumulation. For this assay, cells were seeded in 96-well flat-bottom opaque plates at 20,000 cells/well in 60 μL/well of serum-free DMEM medium and allowed to attach overnight at 37° C., 5% CO2. The next morning, cells were treated with 1 μL/well of compound (25 μM-0.21 nM), 1 μM forskolin, or DMSO vehicle. Cells were also treated with 4 μL of INSL3 (100-0.01 nM) (Phoenix Pharmaceuticals, Burlingame, CA) or vehicle serum-free DMEM. Cells were incubated with the treatments for 3 hours at 37° C., 5% CO2, then rested 30 minutes at room temperature for equilibration, after which 65 μL/well of substrate AMPLITE™ Luciferase Reporter Gene Assay Kit (AAT Bioquest, Sunnyvale, CA) was added. Plates were incubated for 40 minutes at room temperature protected from light, and then luciferase output was read on a CLARIOstar plate reader (BMG Labtech, Germany). […]"}},
  "data": [
    {"smiles": "O=C1Nc2ccc(-c3cc(C(F)(F)F)cc(C(F)(F)F)c3)cc2C(=O)N2CCN(C(=O)COc3ccc(OC(F)(F)F)cc3I)C[C@@H]12", "note": "[Example 187, (S)-8-(3,5-bis(trifluoromethyl)phenyl)-2-(2-(2-iodo-4-(trifluoromethoxy)phenoxy)acetyl)-1,3,4,12a-tetrahydrobenzo[e]pyrazino[1,2-a][1,4]diazepine-6,12 (2H, 11H)-dione]", "values": [
      {"measurement": "cAMP response of chimera RXFP2-1", "setting": "[1]", "value": "no response"},
      {"measurement": "gubernaculum morphology in embryonic day 18.5 female embryos", "setting": "[2]", "value": "male-like invagination of the gubemaculum"}
    ]},
    {"smiles": "O=C1Nc2ccc(-c3cccc(C(F)(F)F)c3)cc2C(=O)N2CCN(C(=O)COc3ccc(OC(F)(F)F)cc3Br)C[C@@H]12", "note": "[Example 123, (S)-2-(2-(2-bromo-4-(trifluoromethoxy)phenoxy)acetyl)-8-(3-(trifluoromethyl)phenyl)-1,3,4,12a-tetrahydrobenzo[e]pyrazino[1,2-a][1,4]diazepine-6,12 (2H, 11H)-dione]", "values": [
      {"measurement": "EC50", "setting": "RXFP2; 25 μM-[…]", "value": 58.5, "unit": "nM"},
      {"measurement": "Emax (% Eff vs. 10 nM INSL3)", "setting": "RXFP2", "value": 117.1, "unit": "%"}
    ]},
    {"smiles": "O=C1Nc2ccc(-c3cc(C(F)(F)F)cc(C(F)(F)F)c3)cc2C(=O)N2CCN(C(=O)COc3ccc(OC(F)(F)F)cc3Br)C[C@@H]12", "note": "[Example 158, (S)-8-(3,5-Bis(trifluoromethyl)phenyl)-2-(2-(2-bromo-4-(trifluoromethoxy)phenoxy)acetyl)-1,3,4,12a-tetrahydrobenzo[e]pyrazino[1,2-a][1,4]diazepine-6,12 (2H, 11H)-dione]", "values": [
      {"measurement": "EC50", "setting": "RXFP2; 25 μM-0.21 nM", "value": 25.8, "unit": "nM"},
      {"measurement": "RXFP2 agonist activity", "setting": "RXFP2; luciferase cAMP assay", "value": "potent RXFP2 agonists"},
      {"measurement": "Emax (% Eff vs. 10 nM INSL3)", "setting": "RXFP2", "value": 105.5, "unit": "%"},
      {"measurement": "gubernaculum morphology in embryonic day 18.5 female embryos", "setting": "[2]", "value": "male-like invagination of the gubemaculum"}
    ]}
  ]
}
